Patent US10682352B2, “Compound having mutant IDH inhibitory activity, preparation method and use thereof” (SHANGHAI HAIHE PHARMACEUTICAL CO., LTD., priority 2016, dated 2020)
Like-named read-outs stand apart in the source and are kept apart here.

Columns and labels:
IDH1 R132H = IDH1 R132H (Homo sapiens (Human), UniProt O75874, R132H); test: Effect on the enzyme activity of IDH1 at the molecular level (NADPH consumption, diaphorase/resazurin); format: biochemical; settings: α-KG 1 mM, NADPH 4 μM, 60 min room temperature
Protocol: The enzyme used in the experiment was purchased from cayman Co.
The substrates α-KG, NADPH and Diaphorase were purchased from Sigma; Resazurin was purchased from J&K; and the remaining reagents were purchased from Sinopharm Chemical Reagent Co., Ltd.
Compound preparation: Compound 12000 g was centrifuged for 5 min, DMSO was added to prepare 10 mM, which was vortexed, then ultrasonic treatment for 10 minutes, and stored at −40° C. The stock solution was diluted firstly with DMSO to a 10 μM solution when tested and then gradient-diluted for 3 times to a different test concentration.
Test method: The enzyme activity of IDH1 to convert α-KG to 2HG was measured by the consumption of NADPH. After the enzymatic reaction was completed, a catalytic excess of diaphorase and reazurin were added, and the resulting fluorescent signal could reflect the amount of remaining NADPH. […] IC50 values were calculated using GraphPad Prism software.

[1] = test system: fibrosarcoma cell line HT1080; test: 2HG inhibition assay on fibrosarcoma cell line HT1080 (LC-MS/MS); format: cell-based, Human; settings: HT-1080 cells, 48 h incubation, read-out: HT1080 2HG Inhibitory IC50
Protocol: In this experiment, the inhibitory activity of the compounds of the present invention against the 2HG concentration level of fibrosarcoma cell line HT1080 was measured by the following method.
Different concentrations of compounds were added and incubated for 48 h. HT-1080 cells were trypsinized and collected, and centrifuged at 500 g for 5 min. The supernatant was discarded, and the cells were resuspended in 1 ml of PBS and the number of cells per sample was counting by a counter (Beckman coulter Z2, Beckman) and adjusted to be the same. After centrifuged at 500 g for 5 min, the supernatant was discarded, and the cell pellet was stored in a refrigerator at −80° C. for 2HG detection.
Sample Treatment: an ice acetonitrile solution containing 200 μL of verapamil (internal standard) was added to sample tubes respectively, vortexed for 1 min, and placed in a refrigerator at 4° C. for 20 min to lyse the cells. 100 μL of sample was taken, another 100 μL of lysate was taken in a 96-well plate and dried with a nitrogen blower, and 100 μL of water was added and vortexed to be uniform.
1. Derivatization: 100 μL of o-benzylhydroxylamine hydrochloride derivatization reagent was added and shaken on a shaker for 1 h to complete the derivatization reaction.
2. Solution extraction: 300 μL of ethyl acetate was added separately, shaken for 20 min, centrifuged at 1900 rpm for 5 min, and placed in a refrigerator at −70° C. for 40 min. All the ethyl acetate was taken up to another sample plate, and dried with a nitrogen blower. 150 μL MEOH/H2O (v/v, 1/1) was added for reconstitution.
3. Bioanalysis: All of the above samples were analyzed by LC-MS/MS (Waters ACQUITY H-Class System, Waters/AB6500, Sciex) after centrifuged at 4000 rpm for 10 min.
The inhibition rate of the sample was obtained by the following formula: […]
IC50 values were calculated using GraphPad Prism software.

IDH1 R132H, sequence (O75874 whole entry R132H): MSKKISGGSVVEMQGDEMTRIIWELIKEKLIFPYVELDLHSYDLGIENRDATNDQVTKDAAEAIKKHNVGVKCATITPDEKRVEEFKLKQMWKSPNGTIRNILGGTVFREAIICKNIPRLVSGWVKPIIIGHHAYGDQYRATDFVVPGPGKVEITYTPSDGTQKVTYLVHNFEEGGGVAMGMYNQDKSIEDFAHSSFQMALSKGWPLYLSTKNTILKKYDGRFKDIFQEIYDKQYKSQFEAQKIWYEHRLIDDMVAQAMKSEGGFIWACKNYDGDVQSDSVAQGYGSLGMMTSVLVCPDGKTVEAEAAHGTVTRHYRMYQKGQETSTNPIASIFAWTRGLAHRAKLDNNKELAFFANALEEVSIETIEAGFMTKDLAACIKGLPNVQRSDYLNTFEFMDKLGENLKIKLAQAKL

Row | Compound | IC50 (IDH1 R132H) [nM] | IC50 [1] [nM] | IC50 ([1]; Homo sapiens, HT-1080, 48 h) [nM] | IC50 ([1]; Homo sapiens) [nM]
1 | CC(C)[C@H]1C(C)N(C)C(=O)N1c1ccnc(N[C@@H](C)c2cn(-c3ccc(Cl)cc3)cn2)n1 (single isomer, unassigned) [Compound 91] | < 100 | 12 |  | 
2 | CC(C)[C@H]1CN(C)C(=O)N1c1ccnc(NC2(c3cn(-c4cc(Cl)cc(Cl)c4)cn3)CC2)n1 [Compound 26, (S)-3-(2-((1-(1-(3,5-dichlorophenyl)-1H-imidazol-4-yl)cyclopropyl)amino)pyrimidin-4-yl)-4-isopropyl-1-methylimidazolidine-2-one] |  |  | 27 | 
3 | [2H]C1([2H])NC(=O)N(c2ccnc(N[C@@H](C)c3cn(-c4ccc(C(F)(F)F)cc4)cn3)n2)[C@H]1C(C)C [Compound 83, (S)-1-(2-(((S)-1-(1-(4-(trifluoromethyl)phenyl)-1H-imidazol-4-yl)ethyl)amino)pyrimidin-4-yl)-4,4-dideutero-5-isopropylimidazolidine-2-one] |  |  | 10 | 
4 | COc1cc(Cl)cc(-n2cnc(C3(Nc4nccc(N5C(=O)N(C)C[C@@H]5C(C)C)n4)CC3)c2)c1 [Compound 38, (S)-3-(2-((1-(1-(3-chloro-5-methoxyphenyl)-1H-imidazol-4-yl)cyclopropyl)amino)pyrimidin-4-yl)-4-isopropyl-1-methylimidazolidine-2-one] |  |  | 14 | 
5 | CC(C)[C@H]1CN(C)C(=O)N1c1ccnc(N[C@@H](C)c2cn(-c3ccc(Cl)cc3)cn2)n1 [Compound 17, (S)-3-(2-(((S)-1-(1-(4-chlorophenyl)-1H-imidazol-4-yl)ethyl)amino)pyrimidin-4-yl)-4-isopropyl-1-methylimidazolidine-2-one] |  |  | 12.9 | 
6 | CC(C)[C@H]1C(C)NC(=O)N1c1ccnc(N[C@@H](C)c2cn(-c3ccc(C(F)(F)F)cc3)cn2)n1 (single isomer, unassigned) [Compound 93] | < 100 | 34.5 |  | 
7 | CC(C)[C@H]1C(C)NC(=O)N1c1ccnc(N[C@@H](C)c2cn(-c3ccc(Cl)cc3)cn2)n1 (single isomer, unassigned) [Compound 87] | < 100 | 29 |  | 
8 | CC(C)[C@H]1C(C)NC(=O)N1c1ccnc(N[C@@H](C)c2cn(-c3ccc(Cl)cc3)cn2)n1 (single isomer, unassigned) [Compound 86] | < 100 | 66 |  | 
9 | CC(C)[C@H]1C(C)N(C)C(=O)N1c1ccnc(N[C@@H](C)c2cn(-c3ccc(C(F)(F)F)cc3)cn2)n1 (single isomer, unassigned) [Compound 95] | < 100 | < 10 |  | 
10 | CC(C)[C@H]1C(C)N(C)C(=O)N1c1ccnc(N[C@@H](C)c2cn(-c3ccc(C(F)(F)F)cc3)cn2)n1 (single isomer, unassigned) [Compound 94] | < 100 |  | < 10 | 
11 | [2H]C([2H])([2H])N1C(=O)N(c2ccnc(N[C@@H](C)c3cn(-c4ccc(Cl)cc4)cn3)n2)[C@@H](C(C)C)C1([2H])[2H] [Compound 89, (S)-3-(2-(((S)-1-(1-(4-chlorophenyl)-1H-imidazol-4-yl)ethyl)amino)pyrimidin-4-yl)-5,5-dideutero-4-isopropyl-1-deuteromethylimidazolidine-2-one] |  |  | 39 | 
12 | CC(C)[C@H]1CN(C)C(=O)N1c1ccnc(NC2(c3cn(-c4cccc(C5CC5)c4)cn3)CC2)n1 [Compound 34] |  |  | 16 | 
13 | CC(C)[C@H]1C(C)N(C)C(=O)N1c1ccnc(N[C@@H](C)c2cn(-c3ccc(Cl)cc3)cn2)n1 (single isomer, unassigned) [Compound 90] | < 100 |  | 24 | 
14 | CC(C)c1cccc(-n2cnc(C3(Nc4nccc(N5C(=O)N(C)C[C@@H]5C(C)C)n4)CC3)c2)c1 [Compound 30, (S)-3-(2-((1-(1-(3-isopropylphenyl)-1H-imidazol-4-yl)cyclopropyl)amino)pyrimidin-4-yl)-4-isopropyl-1-methylimidazolidne-2-one] |  |  | 15 | 
15 | CC(C)[C@@H]1N(c2ccnc(N[C@@H](C)c3cn(-c4ccc(C(F)(F)F)cc4)cn3)n2)C(=O)NC1(C)C [Compound 101] |  |  | 20 | 
16 | CC(C)[C@H]1C(C)NC(=O)N1c1ccnc(N[C@@H](C)c2cn(-c3ccc(C(F)(F)F)cc3)cn2)n1 (single isomer, unassigned) [Compound 92] | < 100 |  | 33 | 
17 | N#Cc1ccnc(N2C(=O)CC[C@H]2C(=O)N(c2cncc(F)c2)[C@H](C(=O)NC2CC(F)(F)C2)c2ccccc2Cl)c1 [AG120, reference compound] |  |  |  | 30
18 | CC(C)[C@H]1CN(C)C(=O)N1c1ccnc(NC2(c3cn(-c4cc(Cl)cc(C#N)c4)cn3)CC2)n1 [Compound 45, (S)-3-chloro-5-(4-(1-((4-(5-isopropyl-3-methylimidazolidine-2-one-1-yl)pyrimidin-2-yl)amine)cyclopropyl)-1H-imidazolidine-1-yl) phenyl cyanide] | < 100 |  |  | 
19 | CC(C)c1cccc(-n2cnc([C@H](C)Nc3nccc(N4C(=O)N(C)C[C@@H]4C(C)C)n3)c2)c1 [Compound 54] | 100 to 1000 |  |  | 
20 | CC(C)[C@@H]1N(c2ccnc(N[C@@H](C)c3cn(-c4ccc(C(F)(F)F)cc4)cn3)n2)C(=O)N(C)C12CC2 [Compound 103, (S)-7-isopropyl-4-methyl-6-(2-(((S)-1-(1-(4-(trifluoromethyl)phenyl)-1H-imidazole-4-yl) Ethyl)amino)-4-yl)-4,6-diazaspiro[2.4]hept-5-one] | 100 to 1000 |  |  | 
